Laboratory results from ChEMBL document CHEMBL4842340, “Development of Cagrilintide, a Long-Acting Amylin Analogue” (J Med Chem, 2021).
pEC50, pIC50: −log10 of the molar value. Converted amounts (≈) assume the structure as drawn. *1 amine or outer side, *2 acyl side, *3 side chain or, on linkers, in order; H or OH if unused. Where a SMILES comes first, the peptide text is derived from it. Bridges are numbered along the chain shown (N, C = ends). The star is where a group is joined. C20 diacid = O=C(O)CCCCCCCCCCCCCCCCCCC(=O)*; γGlu = O=C(O)[C@H](CCC(=O)[*:2])N[*:1]; AEEA = NCCOCCOCC(=O)O

What was measured:
Rattus norvegicus [1] = test: Reduction in food intake in Sprague-Dawley rat at 30 nmol/kg, sc administered as single dose measured upto 24 hrs relative to control; format: functional; design: scale not given: the % may be the effect or the level left; details: time hrs <=24
[2] = Displacement of [125I]-calcitonin from human calcitonin receptor expressed in tk-ts 13 cells measured after 120 mins by scintillation proximity assay; format: cell-based; details: tk-ts13
[3] = Solubility of the compound in lactate at pH 5 by UPLC analysis; format: physicochemical; details: lactate buffer
[4] = Solubility of the compound in lactate at pH 4 by UPLC analysis; format: physicochemical; details: lactate buffer
Homo sapiens [5] = species on record: Homo sapiens; test: Ratio of EC50 for human calcitonin receptor expressed in BHK570 cells to EC50 for human AMY3R (CT+RAMP3) expressed in Hollex1 cells; format: cell-based
Insulin (Homo sapiens) [6] = molecular target: Insulin (Homo sapiens) (UniProt P01308); test: Effect on insulin (unknown origin) amyloid fibril formation assessed as peptide recovery in glycyl-glycine buffer at pH 4 measured after 45 hrs by thioflavin-T fluorescence assay relative to control; design: concentration or dose not given beside the values
Insulin (Homo sapiens), sequence (P01308 whole entry): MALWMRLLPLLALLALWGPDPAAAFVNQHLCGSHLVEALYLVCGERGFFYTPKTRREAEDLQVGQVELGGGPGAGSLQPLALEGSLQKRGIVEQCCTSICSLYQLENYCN

Rattus norvegicus [7] = test: Reduction in food intake in Sprague-Dawley rat at 30 nmol/kg, sc administered as single dose measured after 24 to 48 hrs relative to control; format: functional; design: scale not given: the % may be the effect or the level left; details: time 24-48 hrs
[8] = Solubility of the compound in lactate at pH 3 by UPLC analysis; format: physicochemical; details: lactate buffer
Rattus norvegicus [9] = species on record: Rattus norvegicus; test: Ratio of IC50 for displacement of [125I]-calcitonin from rat calcitonin receptor expressed in tk-ts 13 cells to IC50 for displacement of [125I]-amylin from rat AMY3R (CTR+RAMP3) expressed in BHK-13 cells; format: cell-based
Rattus norvegicus [10] = species on record: Rattus norvegicus; test: Ratio of EC50 for rat calcitonin receptor expressed in BHK-13 cells to EC50 for rat AMY3R (CT+RAMP3) expressed in tk-ts13 cells; format: cell-based
Insulin (Homo sapiens) [11] = molecular target: Insulin (Homo sapiens) (UniProt P01308); test: Effect on insulin (unknown origin) amyloid fibril formation assessed as lag time in glycyl-glycine buffer at pH 4 measured after 45 hrs by thioflavin-T fluorescence assay
Homo sapiens [12] = species on record: Homo sapiens; test: Ratio of IC50 for displacement of [125I]-calcitonin from human calcitonin receptor expressed in tk-ts 13 cells to IC50 for displacement of [125I]-amylin from human AMY3R (CTR+RAMP3) expressed in BHK-13 cells; format: cell-based
[13] = Displacement of [125I]-amylin from rat AMY3R (CTR+RAMP3) expressed in BHK-13 cells measured after 120 mins by scintillation proximity assay; format: cell-based
[14] = Agonist activity at human calcitonin receptor expressed in BHK570 cells assessed as increase in intracellular cAMP concentration incubated for 3 hrs in absence of albumin by CRE luciferase reporter gene assay; format: cell-based; details: BHK570, 3 h
[15] = Solubility of the compound in bis-tris propane at pH 6 by UPLC analysis; format: physicochemical; details: bis-tris propane buffer
[16] = Solubility of the compound in bis-tris propane at pH 8 by UPLC analysis; format: physicochemical; details: bis-tris propane buffer
[17] = Displacement of [125I]-amylin from human AMY3R (CTR+RAMP3) expressed in BHK-13 cells measured after 120 mins by scintillation proximity assay; format: cell-based
[18] = Solubility of the compound in bis-tris propane at pH 6.5 by UPLC analysis; format: physicochemical; details: bis-tris propane buffer
[19] = Agonist activity at rat calcitonin receptor expressed in BHK-13 cells assessed as increase in intracellular cAMP concentration incubated for 25 mins by CRE luciferase reporter gene assay; format: cell-based; details: BHK-13, 25 min
[20] = Solubility of the compound in bis-tris propane at pH 7.5 by UPLC analysis; format: physicochemical; details: bis-tris propane buffer
[21] = Agonist activity at human AMY3R (CT+RAMP3) expressed in Hollex1 cells incubated for 3 hrs by luminescence assay; format: cell-based; details: Hollex1, 3 h
[22] = Agonist activity at rat AMY3R (CT+RAMP3) expressed in tk-ts13 cells assessed as increase in intracellular cAMP level incuabted for 25 mins by CRE luciferase reporter gene assay; format: cell-based; details: tk-ts13, 25 min
[23] = Displacement of [125I]-calcitonin from rat calcitonin receptor expressed in tk-ts 13 cells measured after 120 mins by scintillation proximity assay; format: cell-based; details: tk-ts13
[24] = Solubility of the compound in bis-tris propane at pH 7 by UPLC analysis; format: physicochemical; details: bis-tris propane buffer

| solubility [3] | solubility [4] | Activity (Insulin (Homo sapiens) [6]) | solubility [8] | TIME (Insulin (Homo sapiens) [11]) | pEC50 [14] | solubility [15] | solubility [16] | pIC50 [17] | pEC50 [19] | pEC50 [21] | pEC50 [22] | SMILES | Activity (Rattus norvegicus [1]) | Ratio EC50 (Homo sapiens [5]) | Activity (Rattus norvegicus [7]) | Ratio EC50 (Rattus norvegicus [10]) | other results |
| --- | --- | --- | --- | --- | --- | --- | --- | --- | --- | --- | --- | --- | --- | --- | --- | --- | --- |
| 200 µM (≈ 1020 µg/mL) | 200 µM (≈ 1020 µg/mL) | 93% | 200 µM (≈ 1020 µg/mL) | 45 h | 8.91 | 200 µM (≈ 1020 µg/mL) | 200 µM (≈ 1020 µg/mL) | 9.67 | 7.92 | 10.12 | 9.89 | CC[C@H](C)[C@H](NC(=O)[C@@H]1CCCN1C(=O)CNC(=O)[C@H](Cc1ccccc1)NC(=O)[C@H](CC(N)=O)NC(=O)[C@H](CC(N)=O)NC(=O)[C@H](CO)NC(=O)[C@H](CO)NC(=O)[C@H](Cc1cnc[nH]1)NC(=O)[C@H](Cc1cnc[nH]1)NC(=O)[C@H](CC(C)C)NC(=O)[C@H](Cc1ccccc1)NC(=O)[C@H](CC(N)=O)NC(=O)[C@H](C)NC(=O)[C@H](CC(C)C)NC(=O)[C@H](CCCNC(=N)N)NC(=O)[C@H](CCC(N)=O)NC(=O)[C@@H](NC(=O)[C@H](C)NC(=O)[C@@H]1CSSC[C@H](NC(=O)[C@H](CCCNC(=N)N)NC(=O)[C@H](CCCNC(=N)N)NC(=O)[C@H](CCCNC(=N)N)NC(=O)COCCOCCNC(=O)COCCOCCNC(=O)CC[C@H](NC(=O)CCCCCCCCCCCCCCCCCCC(=O)O)C(=O)O)C(=O)N[C@@H](CC(N)=O)C(=O)N[C@@H]([C@@H](C)O)C(=O)N[C@@H](C)C(=O)N[C@@H]([C@@H](C)O)C(=O)N1)[C@@H](C)O)C(=O)N[C@@H](CC(C)C)C(=O)N1CCC[C@H]1C(=O)N1CCC[C@H]1C(=O)N[C@H](C(=O)N[C@@H](CC(N)=O)C(=O)N[C@H](C(=O)NCC(=O)N[C@@H](CO)C(=O)N[C@@H](CCCNC(=N)N)C(=O)N[C@H](C(=O)N[C@@H](Cc1ccc(O)cc1)C(N)=O)[C@@H](C)O)C(C)C)[C@@H](C)O ({C20 diacid-γGlu-AEEA-AEEA}-RRRCNTATCATQRLANFLHHSSNNFGPILPPTNVGSRTY-NH2; disulfide 4-9) | 32% | 16 | 0% | 93 | pIC50 [2]: 8.04; Ratio IC50 (Rattus norvegicus [9]): 138; Ratio IC50 (Homo sapiens [12]): 43; pIC50 [13]: 9.19; solubility [18]: 200 µM (≈ 1020 µg/mL); solubility [20]: 200 µM (≈ 1020 µg/mL); pIC50 [23]: 7.05; solubility [24]: 200 µM (≈ 1020 µg/mL) |
| 200 µM (≈ 948 µg/mL) | 200 µM (≈ 948 µg/mL) | 3% | 200 µM (≈ 948 µg/mL) | 7 h | 9.70 | 200 µM (≈ 948 µg/mL) | 200 µM (≈ 948 µg/mL) | 9.14 | 9.07 | 10.13 | 10.08 | CC[C@H](C)[C@H](NC(=O)[C@@H]1CCCN1C(=O)CNC(=O)[C@H](Cc1ccccc1)NC(=O)[C@H](CC(N)=O)NC(=O)[C@H](CC(N)=O)NC(=O)[C@H](CO)NC(=O)[C@H](CO)NC(=O)[C@H](Cc1cnc[nH]1)NC(=O)[C@H](Cc1cnc[nH]1)NC(=O)[C@H](CC(C)C)NC(=O)[C@H](Cc1ccccc1)NC(=O)[C@H](CCC(=O)O)NC(=O)[C@H](C)NC(=O)[C@H](CC(C)C)NC(=O)[C@H](CCCNC(=N)N)NC(=O)[C@H](CCC(N)=O)NC(=O)[C@@H](NC(=O)[C@H](C)NC(=O)[C@@H]1CSSC[C@H](NC(=O)[C@H](Cc2cnc[nH]2)NC(=O)[C@H](Cc2cnc[nH]2)NC(=O)[C@H](Cc2cnc[nH]2)NC(=O)CC[C@H](NC(=O)CCCCCCCCCCCCCCCCCCC(=O)O)C(=O)O)C(=O)N[C@@H](CC(N)=O)C(=O)N[C@@H]([C@@H](C)O)C(=O)N[C@@H](C)C(=O)N[C@@H]([C@@H](C)O)C(=O)N1)[C@@H](C)O)C(=O)N[C@@H](CC(C)C)C(=O)N1CCC[C@H]1C(=O)N1CCC[C@H]1C(=O)N[C@H](C(=O)N[C@@H](CC(N)=O)C(=O)N[C@H](C(=O)NCC(=O)N[C@@H](CO)C(=O)N[C@@H](CC(N)=O)C(=O)N[C@H](C(=O)N[C@@H](Cc1ccc(O)cc1)C(N)=O)[C@@H](C)O)C(C)C)[C@@H](C)O ({C20 diacid-γGlu}-HHHCNTATCATQRLAEFLHHSSNNFGPILPPTNVGSNTY-NH2; disulfide 4-9) | 87% | 3 | 92% | 10 | – |
